Blank lines part the entries; values can stand above or below the molecule they belong to.
Columns and labels:
[1] = target: human CDA (Homo sapiens, UniProt P32320); assay: UV-Vis based deamination assay against human CDA; format: biochemical; settings: 27 nM human CDA; for Ki: 2 mM dC, absorbance at 286 nm, Lambert's W function
Protocol: FIG. 12 is a graph showing the initial rate of human CDA-catalysed deamination of 2′-deoxycytidine (dC) in the absence (no inhibitor) and presence of dZ, 34R and 34S. Conditions: 100 μM dC as a substrate, using different concentrations of inhibitors, 27 nM human CDA in 20 mM Na-phosphate buffer, pH 6.0 supplemented with 100 mM NaCl at 25° C. Absorbance was measured at 286 nm at the start of deamination. Samples labelled as “preincubated” refer to experiments when the enzyme was preincubated for 5 min with inhibitors and then 100 μM dC was added.
The seven-membered ring-containing nucleosides synthesized were tested for their inhibition potential against human CDA enzyme by a UV-Vis based deamination assay. All data were obtained by monitoring absorbance of 2′-deoxycytidine at 286 nm and 25° C., where the deamination of cytosine leads to a decrease in absorption. For nucleosides 34R and 34S, the condition of the assay used was 27 nM human CDA and 100 μM dC as a substrate in 20 mM Na-phosphate buffer, 100 mM NaCl at pH 6.0; an average of 8 measurements was done for each nucleoside. As the original 7-membered ring nucleosides were reported as slow-binding inhibitors of CDA,^10 preincubation conditions of an inhibitor with CDA were also tested for the assay and labelled as ‘preincubation’. Here, the nucleosides were preincubated with the enzyme for 5 min and then 100 μM dC substrate was added to start the measurements (FIG. 12).

[2] = target: T1, wild-type APOBEC3A (Homo sapiens, UniProt P31941); assay: NMR assay: wild-type APOBEC3A-catalysed deamination of dC-hairpin-3, Lambert's W function; format: biochemical; settings: pH 7.4, 140 nM enzyme, 500 μM dC-hairpin-3
T1 construct: His7 (C); made in house
T1 sequence (P31941 whole entry): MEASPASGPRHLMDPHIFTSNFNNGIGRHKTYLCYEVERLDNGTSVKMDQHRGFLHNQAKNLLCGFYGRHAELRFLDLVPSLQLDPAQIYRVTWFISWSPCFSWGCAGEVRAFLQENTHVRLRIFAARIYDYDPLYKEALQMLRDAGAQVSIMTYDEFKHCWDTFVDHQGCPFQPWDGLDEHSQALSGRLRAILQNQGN
Protocol: Inhibitors were tested in the NMR assay monitoring APOBEC3A-catalysed deamination of dC-hairpin-3. Deamination data was analysed using Lambert's W function as described in Example 5.

[3] = system: A3BCTD-QM-ΔL3-AL1swap; assay: NMR assay: inhibition of A3BCTD-QM-ΔL3-AL1swap-catalyzed deamination of a linear substrate (initial rates); format: biochemical, human; settings: for Ki / Vmax: 5′-AT3dCAT3 substrate, 50 nM enzyme; for inhibition effect: Km of 5′-AT3dCAT3 (150 μM) compared with apparent Ki: non-linear regression analysis
Protocol: FIG. 6. is a set of graphs showing inhibition of A3BCTD-QM-ΔL3-AL1swap-catalyzed deamination of 5′-T4CAT by dZ/FdZ-containing linear and cross-linked oligos. Initial rate of deamination was measured under the following experimental conditions: 400 μM of 5′-T4CAT, 8 μM (A, B) or 4 μM (C) of dZ/FdZ-containing oligos, 300 nM (A, B) or 200 nM (C) of A3BCTD-QM-ΔL3-AL1swap in a 50 mM sodium phosphate buffer (pH 6.0) containing 100 mM NaCl, 2.5 mM β-mercaptoethanol, 0.1 M EDTA, 50 μM 3-(trimethylsilyl)-2,2,3,3-tetradeuteropropionic acid (TSP) at 25° C. Error bars are estimated standard deviations from triplicate measurements.
FIG. 13 is a graph showing the inhibition of A3BCTD-QM-ΔL3-AL1swap-catalyzed deamination of 5′-T4CAT by linear oligos containing dZ, 34R, 34S and 46. Initial rate of deamination was measured under the following experimental conditions: 400 μM of 5′-T4CAT, at oligo concentration as indicated, 300 nM of A3BCTD-QM-ΔL3-AL1swap in a 50 mM sodium phosphate buffer (pH 6.0) containing 100 mM NaCl, 2.5 mM β-mercaptoethanol, 0.1 M EDTA, 50 μM 3-(trimethylsilyl)-2,2,3,3-tetradeuteropropionic acid (TSP) and 20% D2O at 25° C. Error bars are estimated standard deviations from triplicate measurements.
The inhibition potential of cross-linked oligos was investigated by changing dC to dZ or FdZ in these constructs. The NMR assay described in Example 4 was used to compare the internally cross-linked dZ/FdZ-containing oligos with a linear DNA inhibitor containing dZ/FdZ (dZ-linear is 5′-AT3dZAT3, FdZ-linear is 5′-AT3FdZAT3) that were characterized earlier.^1-2 Residual activity of A3BCTD-QM-ΔL3-AL1swap on the unmodified oligo (5′-T4dCAT) as a substrate in the presence of a known concentration of dZ/FdZ-containing inhibitors (linear and cross-linked) was measured using NMR assay.
(§1) For determination of inhibition constants (KI) of inhibitors the inventors first evaluated kinetic parameters of A3BCTD-QM-ΔL3-AL1swap on two DNA substrates (Table 5), which were used to detect the residual deamination rate in the presence of inhibitors (Table 6). Fitting the experimental data by non-linear least squares using a global fit provided similar values of kinetic parameters to those obtained by the linearized Lineweaver-Burk plot (Table 5). Then, the inhibition constants for strongest cross-linked inhibitors were calculated by several methods assuming a competitive mode of inhibition^1 (Table 6) based on experiments in which the concentration of the individual inhibitor was varied, and the residual deamination initial rate was measured.
Residual activity of A3BCTD-QM-ΔL3-AL1swap on the unmodified oligo (5′-T4CAT) as a substrate in the presence of a known concentration of inhibitors was measured using the NMR assay as described in Example 5.

[4] = system: A3BCTD-QM-ΔL3-AL1swap; assay: Real-time NMR assay: deamination of DNA substrates by A3BCTD-QM-ΔL3-AL1swap; format: biochemical, human
Protocol: FIG. 5 is a set of graphs showing the initial rate of A3BCTD-QM-ΔL3-AL1swap catalyzed deamination of terminally (A), internally (B-D) cross-linked oligos and a dC-hairpin in comparison with the linear substrate. Substrate concentrations are 100 μM in (A and B), 800 μM in (C) and 400 μM in (D). Enzyme concentrations are 50 nM in (A and B) and 300 nM in (C) and 100 nM in (D). Buffers are 50 mM citrate-phosphate (pH 5.5 for A-C) and 50 mM Na-phosphate (pH 6.0 for D), 200 mM NaCl, 2 mM β-mercaptoethanol, 200 μM 4,4-dimethyl-4-silapentane-1-sulfonic acid (DSS) and 10% D2O at 25° C. Error bars are estimated standard deviations from triplicate measurements.
Real-time NMR assays are advantageous because they are direct, utilizing only A3 enzymes and oligos in a suitable buffer system, in contrast to many fluorescence-based assays where a secondary enzyme and a fluorescently modified oligo are used. The NMR-based assay described herein allows a Michaelis-Menten kinetic model to be used to characterize both A3 substrates and inhibitors based on direct determination of the initial velocity of deamination of various ssDNA substrates (including modified substrates) in the presence of A3 enzymes.
The A3 enzyme used in the experiments detailed herein is the well-characterized and very active A3BCTD-QM-ΔL3-AL1swap,^1 where loop 3 is deleted and loop 1 is replaced with the corresponding loop 1 from A3A in addition to four point mutations remote to the enzyme's active site. […] Recent work by the inventors on the related enzyme, A3G, has shown that inhibition of the C-terminal catalytic domain is mirrored by the inhibition of the full-length enzyme, validating their approach of using catalytic C-terminal domains for inhibitor development.^2
Using the 9-mer oligonucleotide ATTTCATTT (5′-AT3dCAT3) (SEQ ID NO: 1) as the standard substrate, the inventors compared the deamination of both terminally and internally cross-linked oligos prepared as above using a previously described real-time NMR assay.^1, 45 For the terminally cross-linked oligos, decreased rates of deamination were observed from 9-mer to 5-mer. The number of phosphates of the modified 9-mer sequence is the same as for the 9-mer DNA control (FIG. 5A). […] The next internal cross-link 2 was designed based on modified nucleotides dU^E and dA^N3. […] However, a marked 2.3 times increase in deamination rate was detected for oligo dC[C^N3(−2),H^E1(+1)]X having internal cross-link 3 connecting −2 and +1 positions in the DNA sequence (FIG. 5D). It is surprising that synthetic oligo dC[C^N3(−2),H^E1(+1)]X was deaminated even faster than a native DNA hairpin.
as §1

[5] = target: A3A-E72A (Homo sapiens, UniProt P31941, E72A); assay: Isothermal titration calorimetry (ITC), binding to A3A-E72A; settings: 25° C
Sequence of A3A-E72A (P31941 whole entry E72A): as the sequence (P31941 whole entry) above, with E72A counted along it
Protocol: (§2) The inventors used isothermal titration calorimetry (ITC) to determine binding of the cross-linked oligos to A3 enzymes, specifically to A3A-E72A, where the active-site glutamic acid is replaced with alanine, and to the catalytically competent A3BCTD-QM-ΔL3-AL1swap and compared this binding to that of linear oligos.
Desalted unmodified DNA oligonucleotides were purchased (Integrated DNA Technologies) at 1 or 5 μmol synthesis scale and dissolved in one of the buffers described below to give 10 mM solutions. ITC experiments were conducted at 25° C. using a MicroCal ITC200 (now Malvern Instruments) isothermal titration calorimeter. […] The ratio of protein to oligonucleotide concentration is usually 1:10. Titrations are made up of 30 individual additions. To prevent protein precipitation during the long time-scale of the experiment it was necessary to used improved ITC buffers. ITC buffer 1: 50 mM MES, pH 6.0, 100 mM NaCl, 200 μM EDTA, 1 mM β-mercaptoethanol and ITC buffer 2: 50 mM Na^+/K^+ phosphate, pH 6.0, 50 mM NaCl, 50 mM choline acetate, 2.5 mM TCEP, 200 μM EDTA with 30 mg/mL BSA. After preparation, ITC buffer 2 was frozen and defrosted before the experiments. ITC buffer 2* is freshly prepared buffer 2.
In contrast, A3A-E72 Å was used, particularly for oligos containing dC so that the complications of deamination can be avoided, although this mutation, notwithstanding no change to active-site structure, does cause a small but significant diminution in ligand binding^1 through loss of hydrogen bonding to the ligand. The inventors expect that the binding of inactivated A3BCTD-QM-ΔL3-AL1swap to the substrate will be close to or even worse than Km of 200 μM, which places substrate binding outside ITC applicability. One should emphasise that the composition of buffers used for NMR kinetic and ITC binding experiments are different, mainly because proteins in ITC experiments need to be at much higher concentration than for kinetic assays (10-100 μM for ITC versus 20-300 nM in kinetic experiments).

[6] = target: A3BCTD-QM-ΔL3-AL1swap; assay: Isothermal titration calorimetry (ITC), binding to A3BCTD-QM-ΔL3-AL1swap; set-up: species or system human; settings: ITC buffer 3 (Na+/K+ phosphate, pH 6.0, 200 mM trimethylamine N-oxide), 25° C
Description: as §2
For oligos containing dZ, catalytically active A3BCTD-QM-ΔL3-AL1swap was used, as it has the active-site glutamic acid required for protonation of N3 in dZ, which activates C4 in dZ to accept nucleophilic OH^−/H2O coordinated to the Zn^2+, which converts dZ into a transition-state or an intermediate analogue of cytidine deamination.^8
For A3BCTD-QM-ΔL3-AL1swap we used ITC buffer 3: 50 mM Na^+/K^+ phosphate, pH 6.0, 200 mM trimethylamine N-oxide dihydrate, 2.5 mM TCEP, 200 μM EDTA. Data evaluation was performed with the software provided by the supplier of MicroCal ITC200.

[7] = Lineweaver-Burk plot for the substrate/Dixon plot for the inhibitor
[8] = Non-linear regression analysis for both substrate and inhibitor
[9] = Linear analysis (Lineweaver-Burk plot)

Sequence of human CDA (P32320 whole entry): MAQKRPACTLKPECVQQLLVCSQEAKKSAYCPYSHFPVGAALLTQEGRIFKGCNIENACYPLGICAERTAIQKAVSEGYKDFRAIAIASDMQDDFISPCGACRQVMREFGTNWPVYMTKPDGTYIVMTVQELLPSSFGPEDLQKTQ

Molecule: O=C1NCC=CCN1[C@H]1C[C@H](O)[C@@H](CO)O1 [compound 46, 1-[2-deoxy-β-D-erythro-pentofuranosyl]-1,3,4,7-tetrahydro-2H-1,3-diazepin-2-one]
Ki [1]: 0.43 ± 0.08 µM

Molecule: 5′-AT3FdZAT3 [FdZ-linear]
Ki [2]: 2.4 ± 0.94 µM
inhibition of deamination of 5′-T4CAT (in words) ([3]; 400 μM 5′-T4CAT, 8 or 4 μM oligo, 300 or 200 nM enzyme, pH 6.0 (FIG. 6)): more powerful inhibitor of A3BCTD-QM-ΔL3-AL1swap than dZ-linear oligo
Ki [3, 7]: 2.1 ± 0.8 µM
Ki [3, 8]: 4.4 ± 0.7 µM
Vmax [3, 8]: 0.0126 ± 0.0008 µM/s
inhibition effect: Km of 5′-AT3dCAT3 (150 μM) compared with apparent Ki [3]: 35 fold

Molecule: ATTTCATTT [5′-AT3dCAT3]
Km [4, 9]: 200 ± 30 µM
Vmax [4, 9]: 0.014 ± 0.002 µM/s
kcat [4, 9]: 0.29 ± 0.04 s⁻¹
Km ([4]; Non-linear regression analysis): 150 µM
Vmax ([4]; Non-linear regression analysis): 0.0126 ± 0.0008 µM/s
kcat ([4]; Non-linear regression analysis): 0.26 ± 0.02 s⁻¹
Kd ([5]; ITC buffer 1 (50 mM MES, pH 6.0)): 0.2 ± 0.06 µM
Kd ([5]; ITC buffer 2 (Na+/K+ phosphate, pH 6.0, BSA; frozen and defrosted)): 0.12 ± 0.03 µM
Kd ([5]; ITC buffer 2* (freshly prepared buffer 2)): 0.13 ± 0.03 µM

Molecule: 5'-TGCGCTT-46-GCGCT [46-hairpin-3]
Ki [2]: 0.29 ± 0.04 µM

The next lines start with results.

Ki [1]: 10.7 ± 0.5 µM
Molecule: O=c1ncccn1[C@H]1C[C@H](O)[C@@H](CO)O1 [dZ, 2′-deoxyzebularine]

inhibitory potential against human CDA ([1]; 100 μM dC, pH 6.0, 25° C, with and without 5 min preincubation (FIG. 12)): some inhibitory potential
Molecule: O=C1CC[C@H](O)CCN1[C@H]1C[C@H](O)[C@@H](CO)O1 [compound 34S, 1-[2-deoxy-β-D-erythro-pentofuranosyl]-(S)-5-hydroxyazepan-2-one]

Ki [3, 7]: 7.5 ± 1.7 µM
Ki [3, 8]: 7 ± 1.3 µM
inhibition effect: Km of 5′-AT3dCAT3 (150 μM) compared with apparent Ki [3]: 20 fold
Kd [6]: 11.4 ± 2.3 µM
Molecule: 5′-AT3dZAT3 [dZ-linear]
Vmax [3, 8]: 0.0126 ± 0.0008 µM/s

From patent publication US20240140983A1, “SINGLE STRANDED DNA ENZYME INHIBITORS” (MASSEY UNIVERSITY, priority 2021, published 2024)
